Assay [1] is described as follows: Dry salicylate element with blocking agent in the spreading layer (Example 1). Conditions: for Salicylate Prediction of Fluid Fluid B: serum with 40 mg/dL salicylate and 100 mg/dL NAC; for Salicylate Prediction of Fluid Fluid B / Salicylate Prediction of Fluid Fluid C / Salicylate Prediction of Fluid Fluid A: agent in spreading layer at given g/m²; for Salicylate Prediction of Fluid Fluid C / Salicylate Prediction of Fluid Fluid A: serum with 40 mg/dL salicylate; for Salicylate Prediction of Fluid Fluid C: one hour exposure to stopper containing 2-benzothiazolethiol; for Salicylate Prediction of Fluid Fluid A: 540 nm, 5 minute, 37°C; for reducing sulfhydryl interference: salicylate element. As to the method: In this example, a dry analytical element formulated for measuring salicylate was used. […] A series of serum samples containing known levels of salicylate were spotted on the various test elements. Absorbance was measured at 540 nm after a 5 minute incubation at 37°C. From this series, a relationship between element absorbance and salicylate level could be made.
Serum samples containing 40 mg/dL of salicylate (Fluid A) and either 100 mg/dL of NAC (Fluid B) or a one hour exposure to a stopper containing 2-benzothiazolethiol (Fluid C) were then spotted on the elements and their predicted salicylate levels determined.

Assay [2] in a line: Screening of sulfhydryl-blocking reagents for NAC interference in the standard SOX solution assay. The class given is biochemical. The conditions noted are these: more NAC than N-ethyl maleimide. As to the method:
(§1) A standard SOX reaction solution can be prepared containing in 1 mL; 100 mM TRIS-C1, pH 7.75, 200 mM sarcosine, 1.5 mM 4-AAP, 0.02% (by weight) phenol, and 5.9 Units peroxidase. All reagents are combined in the assay cuvette and incubated at 37°C for 10 minutes after which time 1 Unit/mL SOX is added to the solution to initiate reaction. Reactions are observed spectrophotometrically at 505 nm; millimolar extinction coefficient is 17.4.
A variety of materials were selected as examples of reagents that might complex with (bind) the sulfhydryl group of NAC and thus block interference. […] One group contains materials not effective under the conditions tested; a second group appeared to minimize NAC interference, but adversely affected the assay. For example, the solution became gel-like or color formation was impaired. It is possible that this group of materials would be effective if they were incorporated apart from the detection chemistry, for example, either attached to beads or polymers or in a separate layer in a multilayer slide format.
The third group contains materials that effectively eliminated NAC interference and had no effect on dye formation or enzyme rate. In each case, the blocking reagent alone (set d) had no effect on the detection system. When this group of blocking reagents and NAC were included in the reaction cuvette, SOX reaction rates improved markedly. […]

A short description of assay [3]: Salicylate element with and without silver nitrate (Example 3). The method, then: Standard elements (without blocking reagent) were spotted with solutions containing human serum spiked with salicylate in concentrations between 0 and 60 mg/dL. After a 5 minute incubation at 37°C the reflectance density was measured at 540 nm. Predicted salicylate concentration can be determined by fitting a response curve through the reflectance densities produced.

A further assay deals with T1, horse radish peroxidase (Armoracia rusticana, UniProt P00433).
T1 sequence (P00433 31-338): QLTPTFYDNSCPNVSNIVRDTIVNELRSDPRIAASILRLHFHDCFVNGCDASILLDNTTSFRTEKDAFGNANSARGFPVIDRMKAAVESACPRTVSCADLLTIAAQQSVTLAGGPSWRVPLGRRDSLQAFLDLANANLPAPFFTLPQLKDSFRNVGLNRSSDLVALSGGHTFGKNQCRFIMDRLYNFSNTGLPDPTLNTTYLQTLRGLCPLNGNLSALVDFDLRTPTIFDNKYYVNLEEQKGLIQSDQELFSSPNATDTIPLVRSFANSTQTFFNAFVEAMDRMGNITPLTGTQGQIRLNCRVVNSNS
Briefly: Effect of NAC on peroxidase activity (o-dianisidine dye formation). The class given is biochemical. Conditions: 1 mM NAC in reaction mixture; 37°C; 430 nm. As to the method: One mL reaction solution was prepared containing 100 mM TRIS-C1, pH 7.75, 0.88 mM H₂O₂, and 0.157 mM o-dianisidine. All reagents were combined in the assay cuvette and incubated at 37°C for 10 minutes after which time 0.59 Unit of horse radish peroxidase was added to the solution to initiate reaction. Reactions were monitored spectrophotometrically at 430 nm; millimolar extinction coefficient was 11.3.

The nature of assay [4]: Effect of NAC on preformed indicator dye in the SOX reaction (bleaching). Conditions: for Final absorbances: 505 nm. The method, then: as §1
When determining the effect of NAC on SOX activity, the standard test described above is carried out except that to allow the reaction to go to completion before NAC is added, only 0.1 mM sarcosine is added. Thus, we ensured that all color formation was complete (the sarcosine being depleted). Indicator dye formed in four cuvettes when SOX was added; absorbance endpoint was 1,800. NAC then was added to the cuvettes to the final concentration of 0, 1, 2.5 or 10 mM, and the changes in absorption monitored. Rapidly (less than 10 seconds) each cuvette containing MAC lost color, proportional to MAC concentration. Final absorbances were 1.880, 1.100, 0.600 and 0.150 for cuvette containing 0, 1, 2.5 or 10 mM NAC, respectively.

The nature of assay [5]: Acetaminophen element with and without maleimide (Example 4). The conditions noted are these: n-acetylcysteine at 100 mg/dL. As to the method: This example is similar to Example 3 except that the analyte is acetaminophen and the element used for testing is the one shown in Table VII below.
Human serum spiked with acetaminophen varying in concentration between 1 and 294 mg/dL were spotted on the standard element and the element of the invention. After incubating for 5 minutes at 37°C, reflectance density was measured at 670 nm. Predictions of acetaminophen concentration were obtained as was done for salicylate concentration in Example 3. Differences between the predicted values and the values actually obtained from the two elements (standard and the invention) are shown in Table VIII.

Assay [6] can be described thus: Placement of the blocking reagent in the dry salicylate element (Example 2). Conditions: Serum w/ Salicylate w/ 100mg/dL N-acetyl cysteine; no blocking reagent. The source says: Placement of the blocking reagent in the proper layer of the dry element is essential for stability. In this example, we placed the blocking reagent (0.5 g/m² of maleimide) in the spreading layer of one element, a location that is relatively hydrophobic in nature, and in the reagent layer of another element. […]

On to `NC(=O)CI` [Iodoacetamide], for which, in assay [1], the “Salicylate Prediction of Fluid Fluid B” value is 12 mg/dL, the “Salicylate Prediction of Fluid Fluid C” value is on record as 42 mg/dL and the “Salicylate Prediction of Fluid Fluid A” value is on record as 40 mg/dL.
Regarding Gold Chloride, in assay [1], the reducing sulfhydryl interference entry was “work well”, the “Salicylate Prediction of Fluid Fluid B” value is given as 40 mg/dL, the “Salicylate Prediction of Fluid Fluid C” value was 40 mg/dL and the “Salicylate Prediction of Fluid Fluid A” value is 40 mg/dL.
Regarding Fe(NO)₃, in assay [1], the “Salicylate Prediction of Fluid Fluid B” value is given as 0.0 mg/dL, the “Salicylate Prediction of Fluid Fluid C” value was 17 mg/dL and the “Salicylate Prediction of Fluid Fluid A” value was 40 mg/dL.
For `CCN1C(=O)C=CC1=O` [N-ethyl-maleimide], in assay [2], the enzyme rate entry is “no improvement in enzyme rate is observed”.
With Silver Nitrate, in assay [1], the reducing sulfhydryl interference entry was “work well”, the “Salicylate Prediction of Fluid Fluid B” value is listed as 40 mg/dL, the “Salicylate Prediction of Fluid Fluid C” value is on record as 40 mg/dL and the “Salicylate Prediction of Fluid Fluid A” value was 40 mg/dL. Further, the “bias, Std w/ AgNO3” value in assay [3] (Salicylate at 15 mg/dL, 1 hour contact w/ rubber stoppers containing 2-benzothiazolethiol, 0.4 g/m² silver nitrate) is 0.3 mg/dL bias. In addition, in assay [3] (Salicylate at 15 mg/dL, n-acetylcysteine at 102 mg/dL, 0.4 g/m² silver nitrate in spreading layer), the “bias, Std w/ AgNO3” value is -0.01 mg/dL bias. Moreover, in assay [3] (Salicylate at 40 mg/dl, 1 hour contact w/ rubber stoppers containing 2-benzothiazolethiol, 0.4 g/m² silver nitrate), the “bias, Std w/ AgNO3” value was found to be 0.3 mg/dL bias. Also, in assay [3] (Salicylate at 40 mg/dl, n-acetylcysteine at 102 mg/dL, 0.4 g/m² silver nitrate), the “bias, Std w/ AgNO3” value is listed as -1.2 mg/dL bias.
Consider `CC(=O)N[C@@H](CS)C(=O)O` [NAC, N-acetyl cysteine], for which, at horse radish peroxidase, the “peroxidase activity, as monitored by dye formation” value is on record as “significantly inhibited”. The Final absorbances was determined as 1.100 in assay [4] (1 mM NAC added after colour formation complete), 0.600 in assay [4] (2.5 mM NAC added after colour formation complete) and 0.150 in assay [4] (10 mM NAC added after colour formation complete). Moreover, the “time in which cuvette lost color” value in assay [4] (cuvettes with 1, 2.5 or 10 mM NAC) was “less than 10 seconds”. In addition, the “bias, Standard element” value in assay [5] (Acetaminophen at 1 mg/dL) is -1.0 mg/dL bias; in assay [5] (Acetaminophen at 52 mg/dl), -52 mg/dL bias; in assay [5] (Acetaminophen at 202 mg/dL), -200 mg/dL bias; in assay [3] (Salicylate at 15 mg/dL, n-acetylcysteine at 102 mg/dL) it was -11.32 mg/dL bias; in assay [3] (Salicylate at 40 mg/dl, n-acetylcysteine at 102 mg/dL) it was -40 mg/dL bias. Also, in assay [6], the “salicylate prediction, Standard Element” value is 0.0 mg/dL.
In the case of `Sc1nc2ccccc2s1` [2-benzothiazolethiol], the “bias, Standard element” value in assay [3] (Salicylate at 15 mg/dL, 1 hour contact w/ rubber stoppers containing 2-benzothiazolethiol) is on record as -12.9 mg/dL bias; in assay [3] (Salicylate at 40 mg/dl, 1 hour contact w/ rubber stoppers containing 2-benzothiazolethiol) it was -31.5 mg/dL bias.

The record behind these values is patent EP0579202A1, “Sulfhydryl-complexing agents in clinical test elements” (Johnson & Johnson Clinical Diagnostics, Inc., priority 1992, dated 1994).
